Laboratory results taken from ChEMBL document CHEMBL4371035, “Design, synthesis and biological evaluation of bifunctional inhibitors of membrane type 1 matrix metalloproteinase (MT1-MMP)” (Bioorg Med Chem, 2019).
The source made the active and inactive calls. The calls are words filed in the database; no cut-off is given here.

Key:
[1] = target: Matrix metalloproteinase-9 (Homo sapiens, UniProt P14780); test: Inhibition of recombinant human proMMP9 using Mca-Lys-Pro-Leu-Gly-Leu-Dap(Dnp)-Ala-Arg-NH2 as substrate preincubated for 3 hrs followed by substrate addition and measured every 10 secs for 15 mins in presence of APMA by fluorometric assay
Chain of Matrix metalloproteinase-9 (P14780 whole entry): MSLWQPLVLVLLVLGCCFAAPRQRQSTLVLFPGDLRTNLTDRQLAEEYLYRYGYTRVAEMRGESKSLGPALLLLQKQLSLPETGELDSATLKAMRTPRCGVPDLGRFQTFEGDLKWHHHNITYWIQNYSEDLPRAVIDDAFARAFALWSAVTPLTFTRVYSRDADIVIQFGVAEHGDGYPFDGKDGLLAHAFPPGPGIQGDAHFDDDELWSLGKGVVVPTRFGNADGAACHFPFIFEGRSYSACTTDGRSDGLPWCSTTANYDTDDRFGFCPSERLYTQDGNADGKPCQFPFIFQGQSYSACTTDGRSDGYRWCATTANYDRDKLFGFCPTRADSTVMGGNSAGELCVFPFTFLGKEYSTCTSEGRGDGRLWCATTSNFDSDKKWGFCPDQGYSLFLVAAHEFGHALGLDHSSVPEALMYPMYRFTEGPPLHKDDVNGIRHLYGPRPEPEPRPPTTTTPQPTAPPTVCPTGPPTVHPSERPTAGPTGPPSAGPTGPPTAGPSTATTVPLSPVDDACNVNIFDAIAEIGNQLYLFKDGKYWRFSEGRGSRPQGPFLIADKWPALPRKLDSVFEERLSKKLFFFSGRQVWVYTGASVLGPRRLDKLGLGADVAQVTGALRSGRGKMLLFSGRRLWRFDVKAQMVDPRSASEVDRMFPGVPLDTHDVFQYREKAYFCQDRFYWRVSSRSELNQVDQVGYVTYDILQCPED

[2] = target: 72 kDa type IV collagenase (Homo sapiens, UniProt P08253); test: Inhibition of recombinant human proMMP2 using Mca-Lys-Pro-Leu-Gly-Leu-Dap(Dnp)-Ala-Arg-NH2 as substrate preincubated for 3 hrs followed by substrate addition and measured every 10 secs for 15 mins in presence of APMA by fluorometric assay
Chain of 72 kDa type IV collagenase (P08253 whole entry, the tested form may be a part): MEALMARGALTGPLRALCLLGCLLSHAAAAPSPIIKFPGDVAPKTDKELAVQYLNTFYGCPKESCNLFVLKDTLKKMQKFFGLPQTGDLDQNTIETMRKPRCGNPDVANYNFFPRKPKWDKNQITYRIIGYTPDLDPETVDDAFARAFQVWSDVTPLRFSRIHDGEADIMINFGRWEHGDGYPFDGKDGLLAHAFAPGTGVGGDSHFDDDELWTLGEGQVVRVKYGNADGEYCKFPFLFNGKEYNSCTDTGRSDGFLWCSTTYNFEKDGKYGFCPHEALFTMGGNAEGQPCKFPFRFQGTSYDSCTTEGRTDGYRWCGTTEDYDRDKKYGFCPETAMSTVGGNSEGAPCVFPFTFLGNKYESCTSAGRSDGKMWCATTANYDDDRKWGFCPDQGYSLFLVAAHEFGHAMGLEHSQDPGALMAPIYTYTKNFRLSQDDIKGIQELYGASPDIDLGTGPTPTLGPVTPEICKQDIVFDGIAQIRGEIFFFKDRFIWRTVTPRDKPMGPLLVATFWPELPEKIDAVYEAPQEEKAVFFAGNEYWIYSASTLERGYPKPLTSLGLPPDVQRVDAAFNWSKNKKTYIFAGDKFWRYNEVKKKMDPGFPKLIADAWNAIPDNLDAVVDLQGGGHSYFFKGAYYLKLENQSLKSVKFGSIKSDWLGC

[3] = target: T1, Matrix metalloproteinase-14 (Homo sapiens, UniProt P50281); test: Inhibition of recombinant human MT1-MMP catalytic domain using Mca-Lys-Pro-Leu-Gly-Leu-Dap(Dnp)-Ala-Arg-NH2 as substrate preincubated for 3 hrs followed by substrate addition and measured every 10 secs for 15 min by fluorometric assay
[4] = target: T2, Interstitial collagenase (Homo sapiens, UniProt P03956); test: Inhibition of recombinant human pro-MMP1 using Mca-Lys-Pro-Leu-Gly-Leu-Dap(Dnp)-Ala-Arg-NH2 as substrate preincubated for 3 hrs followed by substrate addition and measured every 10 secs for 15 mins in presence of APMA by fluorometric assay
T2 sequence (P03956 whole entry): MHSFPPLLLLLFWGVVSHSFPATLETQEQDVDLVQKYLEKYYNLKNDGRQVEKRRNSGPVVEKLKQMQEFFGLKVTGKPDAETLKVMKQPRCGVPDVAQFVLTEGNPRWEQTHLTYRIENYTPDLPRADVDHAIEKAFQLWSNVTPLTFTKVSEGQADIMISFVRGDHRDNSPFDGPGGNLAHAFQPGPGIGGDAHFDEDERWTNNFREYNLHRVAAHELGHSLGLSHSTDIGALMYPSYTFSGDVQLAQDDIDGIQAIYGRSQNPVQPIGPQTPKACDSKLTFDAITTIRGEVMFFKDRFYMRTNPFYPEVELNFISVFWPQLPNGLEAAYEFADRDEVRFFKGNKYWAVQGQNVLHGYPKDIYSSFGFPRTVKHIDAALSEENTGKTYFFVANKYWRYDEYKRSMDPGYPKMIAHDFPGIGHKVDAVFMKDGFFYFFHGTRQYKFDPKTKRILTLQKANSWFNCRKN

[5] = target: T1, Matrix metalloproteinase-14; conditions: 10 uM
Description: Inhibition of MT1-MMP mediated collagenolytic activity in human HT1080 cells stimulated with type I collagen for 48 hrs followed by compound addition at 10 uM and measured after 48 hrs by Coomassie Blue staining-based collagen film degradation assay

[6] = target: T1, Matrix metalloproteinase-14; conditions: 1 to 10 uM
Description: Inhibition of MT1-MMP-mediated proMMP-2 activation in human HT1080 cells stimulated with type I collagen for 24 hrs followed by compound addition assessed as reduction in processed form of MT1-MMP (40 KDa) level at 1 to 10 uM and measured after 24 hrs by Western blot analysis

[7] = target: T1, Matrix metalloproteinase-14; conditions: 0.1 to 10 uM
Description: Inhibition of MT1-MMP-mediated proMMP-2 activation in human HT1080 cells stimulated with type I collagen for 24 hrs followed by compound addition at 0.1 to 10 uM and measured after 24 hrs by gelatin zymography assay

[8] = target: T1, Matrix metalloproteinase-14; test: Inhibition of MT1-MMP-mediated proMMP-2 activation in human HT1080 cells stimulated with type I collagen for 24 hrs followed by compound addition assessed as increase in proMT1-MMP (65 KDa) level at 1 to 10 uM and measured after 24 hrs by Western blot analysis; format: cell-based
[9] = target: T1, Matrix metalloproteinase-14; test: Inhibition of MT1-MMP-mediated proMMP-2 activation in human HT1080 cells stimulated with type I collagen for 24 hrs followed by compound addition assessed as increase in active MT1-MMP (55 KDa) level at 1 to 10 uM and measured after 24 hrs by Western blot analysis; format: cell-based
[10] = target: T1, Matrix metalloproteinase-14; conditions: 0.01 uM
Description: Inhibition of MT1-MMP-mediated proMMP-2 activation in human HT1080 cells stimulated with type I collagen for 24 hrs followed by compound addition at 0.01 uM and measured after 24 hrs by gelatin zymography assay

[11] = target: T1, Matrix metalloproteinase-14; test: Inhibition of MT1-MMP-mediated proMMP-2 activation in human HT1080 cells stimulated with type I collagen for 24 hrs followed by compound addition at <0.1 uM and measured after 24 hrs by gelatin zymography assay; format: cell-based
[12] = target: T1, Matrix metalloproteinase-14; test: Inhibition of MT1-MMP-mediated collagen invasion in human HT1080 cells attached to gelatin-coated Cytodex 3 microcarrier beads assessed as cell migration out from the bead surface into collagen matrix at 1 to 10 uM and measured after overnight incubation by microcarriers beads invasion assay; format: cell-based
[13] = Aqueous solubility of the compound; format: physicochemical; conditions: water (aqueous)
[14] = target: T1, Matrix metalloproteinase-14; test: Inhibition of MT1-MMP mediated collagenolytic activity in human HT1080 cells stimulated with type I collagen for 48 hrs followed by compound addition at 1 to 10 uM and measured after 48 hrs by Coomassie Blue staining-based collagen film degradation assay; format: cell-based
[15] = tested on: HT-1080; test: Cytotoxicity against human HT1080 cells at 10 to 50 uM after 4 hrs by MTS assay; format: cell-based; conditions: ht-1080, 4 h
[16] = target: T1, Matrix metalloproteinase-14; test: Inhibition of MT1-MMP-mediated proMMP-2 activation in human HT1080 cells stimulated with type I collagen for 24 hrs followed by compound addition at 1 to 10 uM and measured after 24 hrs by gelatin zymography assay; format: cell-based
[17] = target: T1, Matrix metalloproteinase-14; test: Inhibition of MT1-MMP-mediated proMMP-2 activation in human HT1080 cells stimulated with type I collagen for 24 hrs followed by compound addition assessed as increase in proMT1-MMP (65 KDa) level at 0.01 to 10 uM and measured after 24 hrs by Western blot analysis; format: cell-based
[18] = target: T1, Matrix metalloproteinase-14; conditions: 0.01 to 10 uM
Description: Inhibition of MT1-MMP-mediated proMMP-2 activation in human HT1080 cells stimulated with type I collagen for 24 hrs followed by compound addition assessed as reduction in processed form of MT1-MMP (40 KDa) level at 0.01 to 10 uM and measured after 24 hrs by Western blot analysis

[19] = target: T1, Matrix metalloproteinase-14; conditions: 10 uM; remark: listed apart in the source
Description: Inhibition of MT1-MMP-mediated proMMP-2 activation in human HT1080 cells stimulated with type I collagen for 24 hrs followed by compound addition at 10 uM and measured after 24 hrs by gelatin zymography assay

[20] = target: T1, Matrix metalloproteinase-14; conditions: 0.01 to 10 uM; remark: listed apart in the source
Description: Inhibition of MT1-MMP-mediated proMMP-2 activation in human HT1080 cells stimulated with type I collagen for 24 hrs followed by compound addition assessed as increase in active MT1-MMP (55 KDa) level at 0.01 to 10 uM and measured after 24 hrs by Western blot analysis

Row | SMILES | IC50 [1] [µM] | IC50 [2] [µM] | IC50 [3] [µM] | IC50 [4] [µM] | inhibition [8] | inhibition [9] | inhibition [12] | inhibition [14] | Activity [15] | further results
1 | COc1ccc(-c2ccc(S(=O)(=O)N(CCNC(=O)CCCNC(=O)c3cccc(C(=O)NCCCC(=O)NCCN([C@H](CCN4C(=O)c5ccccc5C4=O)C(=O)NO)S(=O)(=O)c4ccc(-c5ccc(OC)cc5)cc4)c3)[C@H](CCN3C(=O)c4ccccc4C3=O)C(=O)NO)cc2)cc1 | 0.0021 | 0.0041 | 0.007 | 0.045 |  |  |  |  |  | 
2 | CNC(=O)[C@H](Cc1c[nH]c2ccccc12)NC(=O)[C@@H](CC(=O)NO)CC(C)C |  |  |  |  | Active | Active |  |  |  | inhibition [5]: 100%; inhibition [6]: Active; inhibition [7]: Active; inhibition [10]: inactive
3 | O=C(NCC[C@@H](NS(=O)(=O)c1ccc(-c2ccccc2)cc1)C(=O)NO)c1cccc(C(=O)NCC[C@@H](NS(=O)(=O)c2ccc(-c3ccccc3)cc2)C(=O)NO)c1 | 0.00125 | 0.0012 | 0.08 | 0.87 |  |  |  |  |  | 
4 | COc1ccc(-c2ccc(S(=O)(=O)N(CCNC(=O)c3cccc(C(=O)NCCN([C@H](CCN4C(=O)c5ccccc5C4=O)C(=O)NO)S(=O)(=O)c4ccc(-c5ccc(OC)cc5)cc4)c3)[C@H](CCN3C(=O)c4ccccc4C3=O)C(=O)NO)cc2)cc1 | 0.014 | 0.013 | 0.014 | 0.15 | Dose-dependent effect | Dose-dependent effect | Active | Active | Non-Toxic | inhibition [11]: inactive; solubility [13]: > 1000 µM; inhibition [16]: Active
5 | COc1ccc(-c2ccc(S(=O)(=O)N(OC(C)C)[C@H](CCN3C(=O)c4ccccc4C3=O)C(=O)NO)cc2)cc1 |  |  |  | 0.17 |  |  | Active | Active | Toxic | inhibition [17]: inactive; inhibition [18]: inactive; inhibition [19]: Active; inhibition [20]: inactive
6 | O=C(CCCNC(=O)c1cccc(C(=O)NCCCC(=O)NCC[C@@H](NS(=O)(=O)c2ccc(-c3ccccc3)cc2)C(=O)NO)c1)NCC[C@@H](NS(=O)(=O)c1ccc(-c2ccccc2)cc1)C(=O)NO | 0.0087 | 0.0016 | 0.041 | 0.155 |  |  |  |  |  | 
